Laboratory results reported in patent publication US20230009608A1, “GRK2 INHIBITORS AND USES THEREOF” (Cygnal Therapeutics, Inc., priority 2020, published 2023).

How the values were obtained:
[1] = tested on: PAXF1657 control empty vector cell line; assay: 7-day proliferation assay, PAXF1657 control empty vector cell line (Example 9); type: cell-based; details: 168 h; 7-day compound treatment, CellTiter-Glo
Procedure, shortened: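 Isogenic PAXF1657 pairs differing in GRK2 level (stable cDNA overexpression or CRISPR knockout, each with matched control) are seeded and allowed to attach overnight. Inhibitors span 30 μM-0.0002 μM in 0.3% DMSO for 3 plus 4 days at 37° C, 5% CO2, with a medium change between.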

[2] = tested on: PAXF1657 cell line stably overexpressing GRK2; assay: 7-day proliferation assay, PAXF1657 stably overexpressing GRK2 (Example 9); type: cell-based; details: for GI50: 168 h, 7-day compound treatment, CellTiter-Glo; for Ratio GRK2 overexpressing cells/Empty vector cells: GI50 in GRK2 overexpressing PAXF1657 over GI50 in empty vector PAXF1657
Experimental: In order to identify compounds specific for GRK2, we generated two isogenic cell line pairs of the pancreatic cancer cell line PAXF1657, a pair of cells stably overexpressing GRK2 cDNA or the control empty vector and a cell line pair of PAXF1657 GRK2 knockout clonal cells versus non-targeting control clonal cells.
Proliferation Assay: Cellular anti-proliferative activity of compounds was assessed by using the pancreatic cancer cell line, PAXF1657, stably overexpressing GRK2 cDNA or the control empty vector, as well as the parental urinary bladder cancer cell line, 5637. In addition, we also took advantage of GRK2 knockout cell lines that were generated via CRISPR. Cell lines were seeded into tissue culture treated, white-walled, 96-well plates at a density of 500 cells/well in RPMI1640 media supplemented with 10% H.I. FBS and penicillin/streptomycin. Plates were incubated overnight at 37° C., 5% CO2 to allow cells to adhere to the wells. GRK2 inhibitors were added to the cells using a 10-point dilution series with a final concentration ranging from 30 μM-0.0002 μM in 0.3% DMSO. At the time of compound addition, a set of plates, that were not treated with compounds, were collected and cell viability was measured using CellTiter-Glo (Promega). CellTiter-Glo reagent was added to the designed plates and luminescence was measuring using a Biotek Synergy plate reader. The compound treated cells were incubated for 3 days at 37° C., 5% CO2. The media was then aspirated from each well and replaced with fresh media containing GRK2 inhibitors. The compound treated cells were then incubated for an additional 4 days at 37° C., 5% CO2. Cell viability was assessed and at end of the 7-day compound treatment by CellTiterGlo.

GRK2 [3] = molecular target: T1, GRK2 (Homo sapiens, UniProt P25098); assay: GRK2 Inhibition Assay (TR-FRET, Example 7); type: biochemical; details: 1 nM GRK2, 7 μM ATP, TR-FRET; read-out: GRK2 IC50 (nM) (Example 7)
T1 construct: purchased SignalChem A14-10G
T1 sequence (P25098 1-689): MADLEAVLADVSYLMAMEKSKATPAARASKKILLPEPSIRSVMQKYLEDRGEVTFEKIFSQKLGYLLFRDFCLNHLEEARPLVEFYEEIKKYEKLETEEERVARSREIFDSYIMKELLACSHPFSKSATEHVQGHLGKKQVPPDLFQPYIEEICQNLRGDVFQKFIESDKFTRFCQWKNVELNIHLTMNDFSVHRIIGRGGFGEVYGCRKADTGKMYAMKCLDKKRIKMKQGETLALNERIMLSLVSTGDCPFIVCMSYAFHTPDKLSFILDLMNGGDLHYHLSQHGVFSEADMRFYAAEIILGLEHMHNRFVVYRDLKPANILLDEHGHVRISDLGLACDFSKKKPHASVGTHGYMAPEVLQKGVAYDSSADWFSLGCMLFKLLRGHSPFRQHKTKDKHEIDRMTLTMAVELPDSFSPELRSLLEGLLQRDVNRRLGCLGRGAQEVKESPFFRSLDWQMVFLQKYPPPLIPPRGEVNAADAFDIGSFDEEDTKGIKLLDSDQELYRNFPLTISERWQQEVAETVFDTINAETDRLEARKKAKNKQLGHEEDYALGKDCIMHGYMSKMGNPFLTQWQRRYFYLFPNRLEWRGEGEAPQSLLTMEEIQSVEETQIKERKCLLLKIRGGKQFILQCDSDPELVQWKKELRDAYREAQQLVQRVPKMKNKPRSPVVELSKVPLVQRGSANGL
Procedure, shortened: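 GRK2 at 1 nM preincubated 30 min with compound, then reacted 90 min at room temperature with 7 μM ATP and 50 nM ULight-TopoIIα in HEPES/MgCl2/DTT buffer. Phosphorylation detected by TR-FRET after Eu anti-TopoIIα and EDTA addition, 60 min.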

GRK2 [4] = molecular target: T1, GRK2; assay: ADPGlo GRK2 Inhibition Assay (Example 8); type: biochemical; details: 7.5 nM GRK2, 10 μM ATP, ADP-Glo; read-out: GRK2 IC50 (nM) (Example 8)
Procedure, shortened: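 GRK2 (15 nM 2× enzyme solution) was preincubated 15 min with compound, then reacted 180 min at room temperature with 2× mix of 20 μM ATP plus GRKtide in HEPES pH 7.5, MgCl2, Tween-20, DTT. ADP was detected by ADP-Glo luminescence. Percent inhibition was normalised to enzyme and no-enzyme controls, with dose-response curves from threefold dilutions starting at 100 μM.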

`Cn1c(CNc2cccc(C(=O)NCc3ccccc3C(F)(F)F)c2)nnc1-c1ccncc1` [115h, reference compound] was tested, and the GI50 [1] was 8.91 µM, the GI50 [2] was 10 µM and the “Ratio GRK2 overexpressing cells/Empty vector cells” value [2] was 1.12.

In the case of `O=C(NCc1ccccc1C(F)(F)F)c1cccc(NCc2nnc3n2CCCOc2ccccc2-3)c1` [133a, reference compound], the GI50 [1] is reported as 0.14 µM, the GI50 [2] is reported as 0.24 µM and the “Ratio GRK2 overexpressing cells/Empty vector cells” value [2] is reported as 1.71.

With `CCCn1c(CNc2cccc(C(=O)NCc3ccccc3C(F)(F)F)c2)nnc1-c1ccncn1` [139c, reference compound] the GI50 [1] was 0.84 µM, the GI50 [2] was 1.47 µM and the “Ratio GRK2 overexpressing cells/Empty vector cells” value [2] was 1.75.

`Cn1c(CNc2cccc(C(=O)NCc3cccc4c3OCC4)c2)nnc1-c1ccncn1` [compound 1, N-((2,3-dihydrobenzofuran-7-yl)methyl)-3-(((4-methyl-5-(pyrimidin-4-yl)-4H-1,2,4-triazol-3-yl)methyl)amino)benzamide] was tested, and the IC50 (GRK2 [3]) was 4.7 nM, the GI50 [1] was 1.97 µM and the GI50 [2] was 24.3 µM. The “Ratio GRK2 overexpressing cells/Empty vector cells” value [2] was 12.34 and the IC50 (GRK2 [4]) was 27 nM.

`Cn1c(CNc2cccc(C(=O)NCc3cccc(F)c3)c2)nnc1-c1ccncn1` [compound 2] showed an IC50 (GRK2 [3]) of 56 nM, a GI50 [1] of 1.79 µM and a GI50 [2] of 20.5 µM. For the same compound, the “Ratio GRK2 overexpressing cells/Empty vector cells” value [2] was 11.46 and the IC50 (GRK2 [4]) was 49 nM.

`Cn1c(CNc2cccc(C(=O)N[C@H]3CCOc4ccccc43)c2)nnc1-c1ccncn1` [compound 3] was tested, and the IC50 (GRK2 [3]) was 10 nM, the GI50 [1] was 1.16 µM and the GI50 [2] was 8.61 µM. For the same compound, the “Ratio GRK2 overexpressing cells/Empty vector cells” value [2] was 7.42 and the IC50 (GRK2 [4]) was 18 nM.

For `Cn1c(CNc2cccc(C(=O)NCc3cccnc3C(F)(F)F)c2)nnc1-c1ccncn1` [compound 4], the IC50 (GRK2 [3]) was 28 nM, the GI50 [1] was 0.79 µM and the GI50 [2] was 4.59 µM. For the same compound, the “Ratio GRK2 overexpressing cells/Empty vector cells” value [2] was 5.79 and the IC50 (GRK2 [4]) was 36 nM.

Compound `COc1ccc(CNC(=O)c2cccc(NCc3nnc(-c4ccncn4)n3C)c2)c(F)c1` [compound 5] has an IC50 (GRK2 [3]) of 5.4 nM, a GI50 [1] of 1.51 µM and a GI50 [2] of 10.3 µM. For the same compound, the “Ratio GRK2 overexpressing cells/Empty vector cells” value [2] was 6.79 and the IC50 (GRK2 [4]) was 19 nM.

For `COc1cccc(OC)c1CNC(=O)c1cccc(NCc2nnc(-c3ccncn3)n2C)c1` [compound 6], the IC50 (GRK2 [3]) was 19 nM, the GI50 [1] was 2.08 µM and the GI50 [2] was 12.5 µM. The “Ratio GRK2 overexpressing cells/Empty vector cells” value [2] was 6.01 and the IC50 (GRK2 [4]) was 44 nM.

`CCOc1ccccc1CNC(=O)c1cccc(NCc2nnc(-c3ccncn3)n2C)c1` [compound 7] gave an IC50 (GRK2 [3]) of 33 nM, a GI50 [1] of 3.32 µM and a GI50 [2] of 14.2 µM. For the same compound, the “Ratio GRK2 overexpressing cells/Empty vector cells” value [2] was 4.29 and the IC50 (GRK2 [4]) was 30 nM.

With `Cn1c(CNc2cccc(C(=O)NC3(c4ccccc4)CCOCC3)c2)nnc1-c1ccncn1` [compound 8] the IC50 (GRK2 [3]) was 170 nM, the GI50 [1] was greater than 30 µM and the GI50 [2] was 22.7 µM. The IC50 (GRK2 [4]) was 140 nM.

With `Cn1c(CNc2cccc(C(=O)NCc3cc(F)cc(F)c3)c2)nnc1-c1ccncn1` [compound 10] the GI50 [1] was 1.58 µM, the GI50 [2] was 13.7 µM and the “Ratio GRK2 overexpressing cells/Empty vector cells” value [2] was 8.65. For the same compound, the IC50 (GRK2 [4]) was 15 nM.

In the case of `CCc1cnccc1CNC(=O)c1cccc(NCc2nnc(-c3ccncn3)n2C)c1` [compound 12], the GI50 [1] is reported as 0.97 µM, the GI50 [2] is reported as 8.01 µM and the “Ratio GRK2 overexpressing cells/Empty vector cells” value [2] is reported as 8.24. The IC50 (GRK2 [4]) was 51 nM.

With `CCn1ncc(CNC(=O)c2cccc(NCc3nnc(-c4ccncn4)n3C)c2)c1F` [compound 15] the GI50 [1] was 4.01 µM, the GI50 [2] was 17.7 µM and the “Ratio GRK2 overexpressing cells/Empty vector cells” value [2] was 4.42. For the same compound, the IC50 (GRK2 [4]) was 18 nM.

With `Cc1cccnc1C(C)NC(=O)c1cccc(NCc2nnc(-c3ccncn3)n2C)c1` (centres unmarked) [compound 17] the GI50 [1] was 2.11 µM, the GI50 [2] was 10.3 µM and the “Ratio GRK2 overexpressing cells/Empty vector cells” value [2] was 4.89. The IC50 (GRK2 [4]) was 10 nM.

`Cn1c(CNc2cccc(C(=O)NC3CCOc4c(Cl)cccc43)c2)nnc1-c1ccncn1` (centres unmarked) [compound 20] was tested, and the GI50 [1] was 1.03 µM, the GI50 [2] was 7.99 µM and the “Ratio GRK2 overexpressing cells/Empty vector cells” value [2] was 7.76. The IC50 (GRK2 [4]) was 10 nM.

`Cc1ccnc(C(C)NC(=O)c2cccc(NCc3nnc(-c4ccncn4)n3C)c2)c1` (centres unmarked) [compound 25] gave a GI50 [1] greater than 30 µM and a GI50 [2] of 25.8 µM.

With `Cn1c(CNc2cccc(C(=O)N[C@H]3COc4ccccc43)c2)nnc1-c1ccncn1` [compound 26] the GI50 [1] was 0.68 µM, the GI50 [2] was 4.18 µM and the “Ratio GRK2 overexpressing cells/Empty vector cells” value [2] was 6.15. The IC50 (GRK2 [4]) was 9.8 nM.

For `C[C@@H](NC(=O)c1cccc(NCc2nnc(-c3ccncn3)n2C)c1)c1ncccc1Cl` [compound 29], the GI50 [1] was 1.24 µM, the GI50 [2] was 5.01 µM and the “Ratio GRK2 overexpressing cells/Empty vector cells” value [2] was 4.04. It also gave an IC50 (GRK2 [4]) of 12 nM.

In the case of `COc1cccnc1CNC(=O)c1cccc(NCc2nnc(-c3ccncc3)[nH]2)c1` [compound 33], the GI50 [1] is reported as 1.33 µM, the GI50 [2] is reported as 17.7 µM and the “Ratio GRK2 overexpressing cells/Empty vector cells” value [2] is reported as 13.27. The IC50 (GRK2 [4]) was 7.8 nM.

`CCCn1c(CNc2cc(C(=O)NCc3ccccc3C(F)(F)F)ccn2)nnc1-c1ccncn1` [compound 35, 2-(((4-propyl-5-(pyrimidin-4-yl)-4H-1,2,4-triazol-3-yl)methyl)amino)-N-(2-(trifluoromethyl)benzyl)isonicotinamide] showed an IC50 (GRK2 [3]) of 4.5 nM, a GI50 [1] of 1.3 µM and a GI50 [2] of 3.22 µM. For the same compound, the “Ratio GRK2 overexpressing cells/Empty vector cells” value [2] was 2.49.
